According to patent US5387602A, “1.5-diphenyl-3-(N-hydroxycarbamoyloxyalkyl)pyrazoles” (Ortho Pharmaceutical Corporation, priority 1993, dated 1995):

Experiments:
[1] = molecular target: T1, Sheep Seminal Vesicle Cyclooxygenase (Ovis aries, UniProt P05979); experiment: Procedure I: sheep seminal vesicle (SSV) cyclooxygenase inhibition; type: biochemical; conditions: for IC50: SSV CO; for % INHIB. CO (Procedure I): dose 3 MPK unless otherwise stated (so in the source)
T1 construct: purchased Biomol (Plymouth Meeting, Pa.); host or cells: sheep seminal vesicle
T1 sequence (P05979 25-600): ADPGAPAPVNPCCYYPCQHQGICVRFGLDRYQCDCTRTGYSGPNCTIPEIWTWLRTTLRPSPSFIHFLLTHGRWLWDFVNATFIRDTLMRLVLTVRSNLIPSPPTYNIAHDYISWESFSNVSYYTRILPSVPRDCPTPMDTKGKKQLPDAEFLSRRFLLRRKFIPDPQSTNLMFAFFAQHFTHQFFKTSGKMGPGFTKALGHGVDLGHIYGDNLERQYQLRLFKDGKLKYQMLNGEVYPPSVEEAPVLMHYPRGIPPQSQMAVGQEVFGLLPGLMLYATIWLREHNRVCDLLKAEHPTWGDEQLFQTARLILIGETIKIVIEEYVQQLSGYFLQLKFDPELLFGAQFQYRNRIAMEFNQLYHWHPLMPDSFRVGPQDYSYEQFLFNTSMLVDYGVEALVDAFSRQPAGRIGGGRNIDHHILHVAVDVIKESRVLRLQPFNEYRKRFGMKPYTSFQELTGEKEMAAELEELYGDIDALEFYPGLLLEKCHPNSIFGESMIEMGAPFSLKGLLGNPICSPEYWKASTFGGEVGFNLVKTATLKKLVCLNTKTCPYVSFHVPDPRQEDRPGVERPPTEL
Protocol: Sheep Seminal Vesicle Cyclooxygenase Sheep seminal vesicle (SSV) cyclooxygenase (95% pure, prostaglandin endoperoxide synthase, EC 1.14.99.1 specific activity 24 units/mg protein) obtained as a lyophilized powder from Biomol (Plymouth Meeting, Pa.) was reconstituted at a concentration of 59 mg/mL in Hanks' Balanced Salt Solution (HBSS). The enzyme was divided into 200 μL aliquots, snap frozen with liquid N2, and stored at -70° C. until immediately prior to use. Measurements of CO activity were carried out in polypropylene tubes containing 495 μL of HBSS to which was added 5 μL Of inhibitor or dimethylsulfoxide (DMSO; vehicle control) and 6 μL of SSV CO solution. The tubes were mixed on a vortex shaker, preincubated for 5 min at 37° C. prior to the initiation of the reaction. The reaction was started by the addition of [^14 C]-arachidonic acid (1-^14 C-AA, Amersham, Arlington Heights, Ill.) in 10 μL of methanol. Tubes were again vortexed and incubated in a water bath for 20 minutes after which the tubes were removed and the reaction stopped by acidification with the addition of 1 mL 2M formic acid. Lipophilic products were extracted with 3 mL chloroform and concentrated to dryness under N2. Each pellet was reconstituted with 40 μL of chloroform and spotted on a Whatman Silicon thin-layer chromatography plate and developed in a chromatography tank containing A-9 solvent (11:5:2:1 V:V:V:V, ethyl acetate:trimethyl-pentane:acetic acid:double distilled-H2 O). Radioactive cyclooxygenase products (prostaglandin D2, prostaglandin E2, etc.) were measured using a Bioscan System 200 Imaging Scanner. Inhibition of enzyme activity was calculated by comparing the areas under the curve produced in the presence or absence of test compound. In the following tables, the superscripts indicate the number of experiments and, unless otherwise stated, the dose at which % inhibition is reported is 3 MPK.

[2] = molecular target: T2, 5-LO in intact RBL-1 cells (Rattus norvegicus, UniProt P12527); experiment: Procedure III: inhibition of 5-LO in intact RBL-1 cells; type: cell-based
T2 construct: 5-LO and CO in intact RBL-1 cells; endogenous in cells; host or cells: RBL-1 (rat basophilic leukemia cells), intact
T2 sequence (P12527 1-673): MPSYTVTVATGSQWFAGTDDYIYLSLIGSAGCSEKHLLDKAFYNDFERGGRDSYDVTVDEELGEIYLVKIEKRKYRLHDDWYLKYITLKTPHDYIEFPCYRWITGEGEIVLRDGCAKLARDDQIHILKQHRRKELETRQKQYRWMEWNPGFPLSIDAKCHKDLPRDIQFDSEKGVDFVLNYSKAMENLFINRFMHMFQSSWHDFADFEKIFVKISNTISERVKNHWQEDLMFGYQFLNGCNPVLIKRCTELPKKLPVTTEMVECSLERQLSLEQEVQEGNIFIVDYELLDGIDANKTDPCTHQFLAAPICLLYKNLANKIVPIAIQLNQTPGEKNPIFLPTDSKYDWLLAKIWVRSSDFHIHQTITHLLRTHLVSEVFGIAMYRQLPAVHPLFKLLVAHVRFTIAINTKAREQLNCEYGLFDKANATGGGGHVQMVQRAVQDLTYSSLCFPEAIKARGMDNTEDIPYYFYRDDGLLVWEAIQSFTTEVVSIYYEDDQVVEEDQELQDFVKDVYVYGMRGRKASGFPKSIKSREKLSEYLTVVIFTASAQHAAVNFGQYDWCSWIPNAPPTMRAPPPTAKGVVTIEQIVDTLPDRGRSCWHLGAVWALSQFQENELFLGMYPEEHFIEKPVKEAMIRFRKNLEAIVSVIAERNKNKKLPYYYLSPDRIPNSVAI
Protocol: The ability to inhibit 5-LO and CO in intact RBL-1 cells was also evaluated. RBL-1 cells were maintained in culture in minimal essential medium (Bio*Whittaker, Walkersville, Md.), containing 12.5% fetal calf serum, 10 mg/mL streptomycin, 10 I.U./mL penicillin G, […] gentamycin and 2 mM L-glutamine (Bio*Whittaker, Walkersville, Md.). Cells were collected by centrifugation, washed once in HBSS, and resuspended at a concentration of 1×10^5 cells/mL. Cells were incubated in the presence of vehicle or drug then centrifuged at 800×g for 10 minutes at 4° C. The supernatant was removed by aspiration and the cells were resuspended in 0.5 mL of HBSS. The reaction was started by the addition of 20 μg/mL of calcium ionophore A-23187 (mixed calcium and magnesium salts, Calbiochem, La Jolla, Calif.) and allowed to proceed for 15 minutes, then stopped by plunging the tubes into a slush ice bath. The conversion of AA to 5-LO products was initiated by the addition of 10 μL (50 uCi) of 1-^14 C-AA. Products were isolated by acidification and extraction, followed by thin layer chromatography analysis as described above. Radioactive areas corresponding to authentic 5-LO and CO products were quantitated by the Bioscan 2000 Imaging System.
In the following tables, the superscripts indicate the number of experiments and, unless otherwise stated, the dose at which % inhibition is reported is 3 MPK.

Row | SMILES | IC50 [1] [nM] | % INHIB. CO (Procedure I) [1] [%] | IC50 [2] [nM]
1 | COc1ccc(-n2nc(COC(=O)NO)cc2-c2ccc(Cl)cc2)cc1 [1-A] | 2250 | 43 | 24200
2 | COc1ccc(-n2nc(COC(=O)N(C)O)cc2-c2ccc(Cl)cc2)cc1 [1-B] | 730 | 100 | 6100
3 | COc1ccc(-n2nc(COC(=O)N(O)C(C)C)cc2-c2ccc(Cl)cc2)cc1 [1-C] | 520 | 92 | 10600
4 | COc1ccc(-n2nc(COC(=O)NO)c(Br)c2-c2ccc(Cl)cc2)cc1 [1-D] | 3100 | 43 | 25900
5 | COc1ccc(-n2nc(COC(=O)N(C)O)c(Br)c2-c2ccc(Cl)cc2)cc1 [1-E] | 740 | 100 | 1210
6 | COc1ccc(-n2nc(COC(=O)N(O)C(C)C)c(Br)c2-c2ccc(Cl)cc2)cc1 [1-F] |  | 44 | 3600
7 | COc1ccc(-n2nc(COC(=O)NO)c(Cl)c2-c2ccc(Cl)cc2)cc1 [1-G] |  | 28 | 15900
8 | COc1ccc(-n2nc(COC(=O)N(C)O)c(Cl)c2-c2ccc(Cl)cc2)cc1 [1-H] | 1150 | 100 | 2000
9 | COc1ccc(-n2nc(COC(=O)N(O)C(C)C)c(Cl)c2-c2ccc(Cl)cc2)cc1 [1-I] | 5300 | 18 | 2350
10 | COc1ccc(-n2nc(COC(=O)NO)cc2-c2ccc(C)cc2)cc1 [1-J] | 730 | 73 | 26000
11 | COc1ccc(-n2nc(COC(=O)N(C)O)cc2-c2ccc(C)cc2)cc1 [1-K] | 510 | 100 | 3600
12 | COc1ccc(-n2nc(COC(=O)N(O)C(C)C)cc2-c2ccc(C)cc2)cc1 [1-L] | 420 | 100 | 3800
13 | COc1ccc(-n2nc(COC(=O)NO)c(Br)c2-c2ccc(C)cc2)cc1 [1-M] | 2310 | 75 | 21500
14 | COc1ccc(-n2nc(COC(=O)N(C)O)c(Br)c2-c2ccc(C)cc2)cc1 [1-N] | 890 | 100 | 3460
15 | COc1ccc(-n2nc(COC(=O)N(O)C(C)C)c(Br)c2-c2ccc(C)cc2)cc1 [1-O] | 2660 | 59 | 5120
16 | COc1ccc(-n2nc(COC(=O)NO)c(Cl)c2-c2ccc(C)cc2)cc1 [1-P] | 5000 | 52 | 17500
17 | COc1ccc(-n2nc(COC(=O)N(C)O)c(Cl)c2-c2ccc(C)cc2)cc1 [1-Q] | 2160 | 93 | 1800
18 | COc1ccc(-n2nc(COC(=O)N(O)C(C)C)c(Cl)c2-c2ccc(C)cc2)cc1 [1-R] |  | 11 | 2700

Row | SMILES | IC50 [1] [nM] | % INHIB. CO (Procedure I) [1] [%] | IC50 [2] [nM]
19 | COc1ccc(-n2nc(CCOC(=O)N(C)O)cc2-c2ccc(Cl)cc2)cc1 [2-A] | 2010 | 100 | 1360
20 | COc1ccc(-n2nc(CCOC(=O)N(O)C(C)C)cc2-c2ccc(Cl)cc2)cc1 [2-B] | 960 | 100 | 1980
21 | COc1ccc(-n2nc(CCOC(=O)N(C)O)c(Cl)c2-c2ccc(Cl)cc2)cc1 [2-C] | 1850 | 100 | 4200
22 | COc1ccc(-n2nc(CCOC(=O)N(O)C(C)C)c(Cl)c2-c2ccc(Cl)cc2)cc1 [2-D] | 290 | 63 | 2300
23 | COc1ccc(-n2nc(CCOC(=O)N(C)O)c(Br)c2-c2ccc(Cl)cc2)cc1 [2-E] | 1970 | 37 | 1100
24 | COc1ccc(-n2nc(CCOC(=O)N(O)C(C)C)c(Br)c2-c2ccc(Cl)cc2)cc1 [2-F] | 480 | 58 | 1600
25 | COc1ccc(-n2nc(CCOC(=O)N(C)O)cc2-c2ccc(C)cc2)cc1 [2-G] | 410 | 100 | 920
26 | COc1ccc(-n2nc(CCOC(=O)N(O)C(C)C)cc2-c2ccc(C)cc2)cc1 [2-H] | 220 | 94 | 1480
27 | COc1ccc(-n2nc(CCOC(=O)N(C)O)c(Cl)c2-c2ccc(C)cc2)cc1 [2-I] | 3500 | 80 | 1080
28 | COc1ccc(-n2nc(CCOC(=O)N(O)C(C)C)c(Cl)c2-c2ccc(C)cc2)cc1 [2-J] | 4500 | 88 | 3100
29 | COc1ccc(-n2nc(CCOC(=O)NO)c(Br)c2-c2ccc(C)cc2)cc1 [2-K] |  | 21 | 18700
30 | COc1ccc(-n2nc(CCOC(=O)N(C)O)c(Br)c2-c2ccc(C)cc2)cc1 [2-L] |  | 22 | 1200
31 | COc1ccc(-n2nc(CCCOC(=O)NO)cc2-c2ccc(Cl)cc2)cc1 [3-A] | 4000 | 40 | 30000
32 | COc1ccc(-n2nc(CCCOC(=O)N(C)O)cc2-c2ccc(Cl)cc2)cc1 [3-B] |  | 74 | 3210
33 | COc1ccc(-n2nc(CCCOC(=O)N(O)C(C)C)cc2-c2ccc(Cl)cc2)cc1 [3-C] | 1400 | 53 | 1970
34 | COc1ccc(-n2nc(CCCOC(=O)N(C)O)c(Cl)c2-c2ccc(Cl)cc2)cc1 [3-D] | 2550 | 68 | 820
35 | COc1ccc(-n2nc(CCCOC(=O)N(O)C(C)C)c(Cl)c2-c2ccc(Cl)cc2)cc1 [3-E] | 5800 | 26 | 2800
36 | COc1ccc(-n2nc(CCCOC(=O)N(C)O)c(Br)c2-c2ccc(Cl)cc2)cc1 [3-F] | 2290 | 78 | 2350
